How the values were obtained:
Format in all cases: in vivo
[1] = Iron status and haematological parameters of mice fed iron diets; conditions: C57BL/6 male mice, diet 50 mg/kg iron for two weeks
Procedure: (§1) Thirty C57BL/6 male mice at four weeks of age were subjected to an iron deficient diet (based on the AIN-93G rodent diet, ˜1 mg kg of iron). All mice were bred in the same environment (QIMR Berghofer Animal Facility) to minimise the inherent variability in the microbiome between individual mice.
(§2) After faecal collection at six weeks of age, mice were switched from an iron deficient diet to a diet containing 50 mg/kg of iron such as ferrous sulfate (iron (II) sulfate) or Sucrosomial® iron (ten mice per group).
Faecal samples were then collected from each mouse at eight weeks of age (i.e. two weeks with diets containing iron), the mice sacrificed and the tissues collected for analysis. Liver and serum samples were collected from each animal after euthanasia and stored at −80° C. Haematological parameters were evaluated immediately after euthanasia using a “Coulter Ac-T diff Hematology Analyzer” (Beckman Coulter, Gladesville, NSW, Australia). […] For the analysis of iron and haematological parameters, the statistical differences between the groups were calculated using the unidirectional ANOVA followed by the Tukey post-hoc test for the groups with equal variance or by the Games-Howell post-hoc test for those with unequal variance. Significant differences in variance were identified using the Levene test. DNA was extracted from the faecal samples and the microbial profile (QIMR Berghofer Medical Research Institute) was determined.
• ID: control group, maintained on iron deficient diet (about 1 mg/kg iron). • FS: group fed with diet containing 50 mg/kg of iron in the form of ferrous sulfate (FS abbreviation for ferrous sulfate)—Fe(II). • SI: group fed with diet containing 50 mg/kg of iron in the form of Sucrosomial® iron (SI abbreviation for sucrosomial iron)—Fe(III).
After being sacrificed at the age of eight weeks, iron levels in the liver and in the serum, as well as the haematological parameters of mice of the three groups under analysis (ID, FS and SI) were examined.

[2] = Body weight of mice on iron diets; conditions: C57BL/6 male mice, diet 50 mg/kg iron for two weeks; comparison of ID, FS and SI groups (FIG. 1A)
Procedure: as §1, §2
The remaining ten mice were a control group that remained on the deficient diet.
Faecal samples were then collected from each mouse at eight weeks of age (i.e. two weeks with diets containing iron), the mice sacrificed and the tissues collected for analysis. Liver and serum samples were collected from each animal after euthanasia and stored at −80° C. Haematological parameters were evaluated immediately after euthanasia using a “Coulter Ac-T diff Hematology Analyzer” (Beckman Coulter, Gladesville, NSW, Australia). Serum iron parameters, analysed using the Iron/TIBC Reagent Kit (Pointe Scientific, Canton, MI), and iron levels in tissues were determined as described above [Frazer, D. M., et al. Cell Mol Gastroenterol Hepatol 3, 410-421 (2017)]. […] DNA was extracted from the faecal samples and the microbial profile (QIMR Berghofer Medical Research Institute) was determined. […]

[3] = system: gut microbiome of mice; test: Faecal microbiome diversity (beta and alpha diversity) in mice; conditions: faecal samples, two weeks on diet 50 mg/kg iron
Procedure: as §1
(§3) At six weeks of age (i.e. two weeks with an iron deficient diet), faeces were collected for microbiome analysis. This was the control sample for each mouse and it represents the basic microbiome of that particular animal when the lumen is iron deficient. […]
Faecal samples were then collected from each mouse at eight weeks of age (i.e. two weeks with diets containing iron), the mice sacrificed and the tissues collected for analysis. […] Haematological parameters were evaluated immediately after euthanasia using a “Coulter Ac-T diff Hematology Analyzer” (Beckman Coulter, Gladesville, NSW, Australia). Serum iron parameters, analysed using the Iron/TIBC Reagent Kit (Pointe Scientific, Canton, MI), and iron levels in tissues were determined as described above [Frazer, D. M., et al. Cell Mol Gastroenterol Hepatol 3, 410-421 (2017)]. […] DNA was extracted from the faecal samples and the microbial profile (QIMR Berghofer Medical Research Institute) was determined.

[4] = system: Bacteroidota; test: Faecal microbiome changes at phylum level: Bacteroidota; conditions: faecal samples, mice, two weeks on diet 50 mg/kg iron vs baseline (FIG. 5)
Procedure: as §1, §3
(§4) Faecal samples were then collected from each mouse at eight weeks of age (i.e. two weeks with diets containing iron), the mice sacrificed and the tissues collected for analysis. […] Haematological parameters were evaluated immediately after euthanasia using a “Coulter Ac-T diff Hematology Analyzer” (Beckman Coulter, Gladesville, NSW, Australia). Serum iron parameters, analysed using the Iron/TIBC Reagent Kit (Pointe Scientific, Canton, MI), and iron levels in tissues were determined as described above [Frazer, D. M., et al. Cell Mol Gastroenterol Hepatol 3, 410-421 (2017)]. […] DNA was extracted from the faecal samples and the microbial profile (QIMR Berghofer Medical Research Institute) was determined. […]

[5] = system: Lachnospiraceae spp, Rikenellaceae RC9, Faecalibaculum, Colidextribacter, Oscillibacter, Parasutterella, Lactobacillus; test: Faecal microbiome changes at Amplicon Single Variant (ASV)/genus level; conditions: faecal samples, mice, two weeks on diet 50 mg/kg iron vs baseline (FIG. 6G)
Procedure: as §1, §3, §4

ferrous sulfate
iron concentration in the liver ([1]; Sucrosomial iron vs ferrous sulfate (FIG. 1B)): no significant differences
serum iron levels ([1]; Sucrosomial iron vs ferrous sulfate (FIG. 1C)): no significant differences
transferrin saturation ([1]; Sucrosomial iron vs ferrous sulfate (FIG. 1D)): no significant differences
red blood cell count ([1]; Sucrosomial iron vs ferrous sulfate (FIG. 2A)): no significant differences
haemoglobin ([1]; Sucrosomial iron vs ferrous sulfate (FIG. 2B)): no significant differences
haematocrit ([1]; Sucrosomial iron vs ferrous sulfate (FIG. 2C)): no significant differences
mean corpuscular volume ([1]; Sucrosomial iron vs ferrous sulfate (FIG. 2D)): no significant differences
body weight [2]: no significant differences
Shannon index (alpha diversity) per group ([3]; unpaired comparison of groups (FIG. 4A)): lower
beta diversity (overall microbial composition, PCoA) ([3]; vs iron deficient diet (FIG. 3)): able to be distinguished from samples taken from mice on iron-deficient diets
abundance of phylum Bacteroidota, change vs baseline [4]: significantly reduced
Lactobacillus at the genus level, change vs baseline [5]: no similar decrease

Source: patent US20240139235A1, “IRON(III) FORMULATIONS FOR THE TREATMENT OF GASTROINTESTINAL INFLAMMATION” (PHARMANUTRA S.P.A., priority 2021, published 2024)
